Results from patent US5162366A, “Antioxidant composition in vivo comprising enol form δ-lactone of diketogulonic acid” (Nissan Chemical Industries, Ltd., priority 1990, dated 1992).
Entries after “also recorded” stand apart in the source; their conditions may differ.

Key:
[1] = intraperitoneal administration to female ddY mice in this test; cited from earlier work
ddY strain mice [2] = test: Reducing toxicity of Adriamycin: survival days of mice; assay type: in vivo, mouse (female ddY strain); conditions: after Adriamycin; for prolongation of survival days: conclusion; for incidence of death versus control group: vitamin E 200 mg/kg i.p. 4 times or R-345 30 mg/kg i.p. 4 times
erythrocyte membrane = test: Inhibition of tert-butyl hydroperoxide-induced peroxidation of erythrocyte membrane (thiobarbituric acid); assay type: biochemical, human; conditions: for amount of lipid peroxide / formation of peroxide: human red ghost, tert-butyl hydroperoxide, 37° C., 30 minutes, 535 nm (FIG. 1)
Excerpt: Human blood cells were subjected to hemolysis and red ghost (membrane segments containing hemoglobin) was collected by a centrifuging machine. […] The reaction product was quantitatively determined by colorimetry at 535 nm.

Stability in water = assay type: physicochemical
liver = test: Reducing liver toxicity by organic halogen compounds (CCl4 :CHCl3); assay type: in vivo, mouse (female ddY strain); conditions: for TBA value (lipid peroxide) in liver: Day 1 after CCl4 :CHCl3, FIG. 4a; for calcium content in liver: over 3 days after CCl4 :CHCl3, FIG. 4b
Experimental: In liquid paraffin were dissolved 0.0025 ml of carbon tetrachloride (CCl4) and 0.0050 ml of chloroform (CHCl3) to form 0.1 ml of a solution. The solution was intraperitoneally administered to female ddY strain mice of 4 week age having a mean body weight of 25 g. With passage of day, concentration of lipid peroxide (TBA value, by thiobarbituric acid reaction), calcium concentration and a ratio of saturated fatty acids to unsaturated fatty acids (as an index of fatty liver), in liver were measured over 3 days. […] Ascorbic acid (AsA) and R-345 (4 mg each was dissolved in 0.1 ml of physiological saline, respectively) were intraperitoneally administered once a day every day from 6 hours after CCl4 :CHCl3 was administered to the day before the mice were sacrificed.

ddY strain mice [3] = test: Reducing radiation injury (X rays 800 roentgen): survival days of mice; assay type: in vivo, mouse (female ddY strain); conditions: for mice survived longer than 30 days / mice survived on Day 15 / average number of survival days: X rays 800 roentgen, FIG. 3; for mice survived longer than 30 days: 20 mice, R-345 285 mg/kg i.v. and/or vitamin E 200 mg/kg i.m.; for mice survived on Day 15: R-345 285 mg/kg i.v. 3 times and/or vitamin E 200 mg/kg i.m. 3 times; for average number of survival days: survival longer than 30 days counted as 30 days, control 8.7 days
Experimental: Female ddY strain mice of 4 week age having a mean body weight of 25 g were exposed to X rays of 800 roentgen to examine the number of survival days (dose of LD50 for 30 days was 407 to 466 roentgen).
R-345 (285 mg/kg) was intravenously administered through the tail immediately before exposure to radiation, and on Days 1 and 3 (3 times in total). […] With respect to a mouse survived longer than 30 days, the number of survival days was counted as 30 days to determine the average number of survival days.
Vitamin E (200 mg/kg) was intramuscularly administered 3 days and 1 day before exposure to radiation, and immediately before the exposure (3 times in total).

[4] = Oxidation of the reducing agent by tert-butyl hydroperoxide (absorption intensity); assay type: physicochemical; conditions: addition of tert-butyl hydroperoxide
ddY strain mice [5] = test: Recovery from hyperglycemia in Alloxan-induced diabetes; assay type: in vivo, mouse (female ddY strain); conditions: one week after Alloxan 80 mg/kg i.v.; FIG. 5
Experimental: After Alloxan (80 mg/kg) was intravenously administered to female ddY strain mice of 4 week age showing a mean body weight of 25 g, 0.2 ml of vitamin E solution (dissolved in liquid paraffin in a concentration of 5%) was intramuscularly injected per mouse once a day from the next day and 0.2 ml of R-345 (dissolved in physiological saline in a concentration of 2 wt %) was intraperitoneally injected. In the control group, 0.2 ml of physiological saline was intraperitoneally injected per mouse. Blood sugar level was measured one week after administration of Alloxan.

| Compound | prolongation of survival days (ddY strain mice [2]) | incidence of death versus control group (ddY strain mice [2]) | amount of lipid peroxide / formation of peroxide (erythrocyte membrane) | TBA value (lipid peroxide) in liver (liver) | calcium content in liver (liver) | mice survived longer than 30 days (ddY strain mice [3]) [mice] | mice survived on Day 15 (ddY strain mice [3]) | average number of survival days (ddY strain mice [3]) [days] | oxidation by tert-butyl hydroperoxide [4] | blood sugar level (ddY strain mice [5]) | also measured |
| --- | --- | --- | --- | --- | --- | --- | --- | --- | --- | --- | --- |
| COc1cccc2c1C(=O)c1c(O)c3c(c(O)c1C2=O)C[C@@](O)(C(=O)CO)C[C@@H]3O[C@H]1C[C@H](N)[C@H](O)[C@H](C)O1 [Adriamycin] | – | – | – | – | – | – | – | – | – | – | LD50 [1]: 14 mg/kg |
| O=C1OC(CO)C(=O)C(O)=C1O (centres unmarked) [R-345, 2,3,6-trihydroxy-4-oxo-2-hexen-5-olide] | only a slight prolongation | a slight difference was observed | exhibited the activity of inhibiting the formation of peroxide | almost the same as in the control group | almost recovered to normal level | 2 | 3 out of 20 | 12.9 | hardly oxidized | somewhat higher than normal level | mice survived longer than 50 days (ddY strain mice [2]; i.p., 10 mice, R-345 30 mg/kg and/or vitamin E 200 mg/kg, FIG. 2): 2 mice; mice died up to about Day 20 (ddY strain mice [2]; R-345 30 mg/kg i.p. 4 times, FIG. 2b): 8 out of 10; activity of alleviating erythrocyte membrane disturbance induced by a peroxidant, versus ascorbic acid (erythrocyte membrane; conclusion): more effective than ascorbic acid; decomposition in water over a long period of time (Stability in water): tends to be decomposed some or less; increase in TBA value, calcium content and increase in neutral fat versus control group or vitamin E alone (liver; conclusion): reduced as compared to the control group or the group administered with vitamin E alone; increase in average number of survival days compared with the control group (ddY strain mice [3]; R-345 285 mg/kg i.v. 3 times): slight increase; reduction in absorption intensity at 345 nm [4]: slight |
| O=C1O[C@H]([C@@H](O)CO)C(O)=C1O [ascorbic acid] | – | – | increased | particularly high TBA value was noted in some cases | not lowered to normal level | – | – | – | immediately oxidized | – | TBA value (lipid peroxide) in liver (liver; listed as AsA): some were higher than in the group administered with physiological saline (control group); reduction in absorption intensity at 265 nm [4]: markedly reduced |
| vitamin E | only a slight prolongation | almost the same incidence as noted with the control group | exhibited the activity of inhibiting the formation of peroxide | – | not lowered to normal level | 2 | 2 out of 20 | 11.8 | – | somewhat higher than normal level | mice survived longer than 31 days (ddY strain mice [2]; vitamin E 200 mg/kg i.p. 4 times, FIG. 2c): None; prevention of increase in TBA value (lipid peroxide level) (liver; CCl4 :CHCl3): effect of preventing increase in TBA value (lipid peroxide level) was noted; prevention of increase of calcium level (liver; CCl4 :CHCl3): not noted; prevention of increase in TBA value (lipid peroxide level) (liver; CCl4 :CHCl3, listed as VE): effective for preventing the increase in TBA value; also recorded: prevented an increase in TBA value; recovery of ratio of saturated fatty acid to unsaturated fatty acid in liver (liver; Day 2 after CCl4 :CHCl3, FIG. 4c): recovery would be slower than in the group administered with no VE; recovery to normal level of calcium content on Day 3 (liver; Day 3 after CCl4 :CHCl3, conclusion): a tendency to delay the recovery to normal level |
